Assay results taken from patent US20070015832A1, “Methods of treating overactive bladder and urinary incontinence” (Myriad Genetics, Incorporated, priority 2005, published 2007).
Where two headings read alike, the source gives them in different places.

Details: oral tablets, placebo group 6 patients
Experimental: Subjects will be stratified at randomization for use/non-use of AChE inhibitors. A target of 201 subjects (67 subjects per arm) in 3 treatment groups are enrolled for 12 Months with optional follow-on treatment after Month 12 (2 treatment groups).
The intraday dosing interval is approximately 12 hours. Study drug is instructed to be taken at approximately the same time each day during the participation in the 12-month study. Study medication may be taken with or without food.

C[C@@H](C(=O)O)c1ccc(-c2ccccc2)c(F)c1 [(R)-2-(2-fluoro-4-biphenyl)propionic acid]
patients exhibiting urinary incontinence (400 mg BID group (800 mg/day), p value vs. placebo = 0.028): 0 patients
patients exhibiting urinary incontinence (800 mg BID group (1600 mg/day), p value vs. placebo = 0.063): 1 patient
